Test results taken from patent publication US20260262643A1, “HERBICIDAL BENZOXAZINES” (FMC CORPORATION, priority 2022, published 2026).
Like-named read-outs stand apart in the source and are kept apart here.

How the values were obtained:
blackgrass [1] = experiment: Test A preemergence; type: in vivo, Alopecurus myosuroides; settings: Alopecurus myosuroides, pre-emergence, 240 h, read-out: Plant response rating, Blackgrass; for pest or weed control at 125 g/ha: 125 g ai/ha; for pest or weed control at 500 g/ha: 500 g ai/ha
How it was run: (§1)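 Greenhouse pot test, 10 days. Compound (non-phytotoxic solvent, surfactant) sprayed on soil at seeding or on seedlings at one- to two-leaf stage. Visual injury rated 0–100 against untreated plants.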

ragweed [2] = experiment: Test A postemergence; type: in vivo, Ambrosia artemisiifolia; settings: Ambrosia artemisiifolia, post-emergence, 240 h, postemergence, 10 days, 0 to 100 scale (0 no effect, 100 complete control); for pest or weed control at 500 g/ha: 500 g ai/ha, visual injury, read-out: Plant response rating, Ragweed
How it was run: as §1

corn = experiment: Test A preemergence; type: in vivo, Zea mays; settings: Zea mays, pre-emergence, 240 h; for Corn plant response rating (crop injury, 0 = no effect, 100 = complete kill) at 125 g/ha: 125 g ai/ha; for Corn plant response rating (crop injury, 0 = no effect, 100 = complete kill) at 500 g/ha: 500 g ai/ha
How it was run: as §1

wheat [3] = experiment: Test A postemergence; type: in vivo, Triticum aestivum; settings: Triticum aestivum, post-emergence, 240 h, postemergence, 10 days, 0 to 100 scale (0 no effect, 100 complete control); for plant injury at 500 g/ha: 500 g ai/ha, visual injury, read-out: Plant response rating, Wheat
How it was run: as §1

wheat [4] = experiment: Test A preemergence; type: in vivo, Triticum aestivum; settings: Triticum aestivum, pre-emergence, 240 h, read-out: Plant response rating, Wheat; for plant injury at 125 g/ha: 125 g ai/ha; for plant injury at 500 g/ha: 500 g ai/ha
How it was run: as §1

soybean = experiment: Test A preemergence; type: in vivo, Glycine max; settings: Glycine max, pre-emergence, 240 h, read-out: Plant response rating, Soybean; for plant injury at 125 g/ha: 125 g ai/ha; for plant injury at 500 g/ha: 500 g ai/ha
How it was run: as §1

ragweed [5] = experiment: Test A preemergence; type: in vivo, Ambrosia artemisiifolia; settings: Ambrosia artemisiifolia, pre-emergence, 240 h, read-out: Plant response rating, Ragweed; for pest or weed control at 125 g/ha: 125 g ai/ha; for pest or weed control at 500 g/ha: 500 g ai/ha
How it was run: as §1

ducksalad = experiment: Test B flooded paddy test; type: in vivo, Heteranthera limosa; settings: Heteranthera limosa, 312 h, 250 g ai/ha, Flood, 13 days, 0 to 100 scale (0 no effect, 100 complete control); read-out: Plant response rating, Ducksalad
How it was run: (§2)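 Compound is introduced into paddy water covering soil by 3 cm, treating plants that have reached two leaves. Pots are kept flooded at that depth under greenhouse conditions. Assessment at 13 days gives a 0–100 visual control score.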

kochia [6] = experiment: Test A preemergence; type: in vivo, Bassia scoparia; settings: Bassia scoparia, pre-emergence, 240 h, read-out: Plant response rating, Kochia; for pest or weed control at 125 g/ha: 125 g ai/ha; for pest or weed control at 500 g/ha: 500 g ai/ha
How it was run: as §1

blackgrass [7] = experiment: Test A postemergence; type: in vivo, Alopecurus myosuroides; settings: Alopecurus myosuroides, post-emergence, 240 h; for pest or weed control at 125 g/ha: 125 g ai/ha; for pest or weed control at 500 g/ha: 500 g ai/ha
How it was run: as §1

goosegrass = experiment: Test A postemergence; type: in vivo, Eleusine indica; settings: Eleusine indica, post-emergence, 240 h, postemergence, 10 days, 0 to 100 scale (0 no effect, 100 complete control); for pest or weed control at 125 g/ha: 125 g ai/ha; for pest or weed control at 500 g/ha: 500 g ai/ha
How it was run: as §1

kochia [8] = experiment: Test A postemergence; type: in vivo, Bassia scoparia; settings: Bassia scoparia, post-emergence, 240 h, postemergence, 10 days, 0 to 100 scale (0 no effect, 100 complete control); for pest or weed control at 125 g/ha: 125 g ai/ha; for pest or weed control at 500 g/ha: 500 g ai/ha
How it was run: as §1

rice = experiment: Test B flooded paddy test; type: in vivo, Oryza sativa; settings: Oryza sativa, 312 h; 250 g ai/ha, Flood, 13 days, 0 to 100 scale (0 no effect, 100 complete control); read-out: Plant response rating, Rice
How it was run: as §2

foxtail, giant = experiment: Test A postemergence; type: in vivo, Setaria faberi; settings: Setaria faberi, post-emergence, 240 h, postemergence, 10 days, 0 to 100 scale (0 no effect, 100 complete control); for pest or weed control at 125 g/ha: 125 g ai/ha; for pest or weed control at 500 g/ha: 500 g ai/ha
How it was run: as §1

[9] = visual injury after 10 days, 0 to 100 scale, 0 is no effect, 100 is complete control
[10] = postemergence, 10 days, visual injury, 0 to 100 scale (0 no effect, 100 complete control), read-out: Plant response rating, Blackgrass
[11] = visual injury, read-out: Plant response rating, Goosegrass
[12] = visual injury, read-out: Plant response rating, Kochia
[13] = visual injury, read-out: Plant response rating, Foxtail, Giant
[14] = 0 to 100 scale (0 no effect, 100 complete control), 10 days

Compound	pest or weed control at 125 g/ha (blackgrass [1]; [9]) [%]	pest or weed control at 500 g/ha (ragweed [2]) [%]	Corn plant response rating (crop injury, 0 = no effect, 100 = complete kill) at 125 g/ha (corn; [9]) [%]	plant injury at 500 g/ha (wheat [3]) [%]	plant injury at 125 g/ha (wheat [4]; [9]) [%]	plant injury at 125 g/ha (soybean; [9]) [%]	pest or weed control at 125 g/ha (ragweed [5]; [9]) [%]	pest or weed control at 250 g/ha (ducksalad) [%]	pest or weed control at 125 g/ha (kochia [6]; [9]) [%]	pest or weed control at 500 g/ha (goosegrass; [11]) [%]	pest or weed control at 500 g/ha (kochia [8]; [12]) [%]	plant injury at 250 g/ha (rice) [%]	pest or weed control at 500 g/ha (foxtail, giant; [13]) [%]	further results
Cc1cccc2c1O[C@@H](C)CN2C(=O)c1cccc(-n2cnn(C)c2=O)c1 [Compound 117, 4-[3-[[(2S)-2,3-Dihydro-2,8-dimethyl-4H-1,4-benzoxazin-4-yl]carbonyl]phenyl]-2,4-dihydro-2-methyl-3H-1,2,4-triazol-3-one]	30	0	0	40	0	30	0	0	0	70	70	0	70	pest or weed control at 500 g/ha (blackgrass [1]; [9]): 90%; pest or weed control at 125 g/ha (ragweed [2]; 125 g ai/ha, read-out: Ragweed plant response rating): 0%; Corn plant response rating (crop injury, 0 = no effect, 100 = complete kill) at 500 g/ha (corn; [9]): 10%; plant injury at 125 g/ha (wheat [3]; 125 g ai/ha, read-out: Wheat plant response rating): 10%; plant injury at 500 g/ha (wheat [4]; [9]): 20%; plant injury at 500 g/ha (soybean; [9]): 70%; pest or weed control at 500 g/ha (ragweed [5]; [9]): 40%; pest or weed control at 500 g/ha (kochia [6]; [9]): 60%; pest or weed control at 125 g/ha (blackgrass [7]; postemergence, 10 days, 0 to 100 scale (0 no effect, 100 complete control), read-out: Blackgrass plant response rating): 50%; pest or weed control at 500 g/ha (blackgrass [7]; [10]): 90%; pest or weed control at 125 g/ha (goosegrass; read-out: Goosegrass plant response rating): 30%; pest or weed control at 125 g/ha (kochia [8]; read-out: Kochia plant response rating): 30%; pest or weed control at 125 g/ha (foxtail, giant; read-out: Foxtail, Giant plant response rating): 20%
Cc1ccc(-n2cnc(C(C)C)n2)cc1C(=O)N1C[C@H](C)Oc2c(Cl)cccc21 [Compound 73, [(2S)-8-Chloro-2,3-dihydro-2-methyl-4H-1,4-benzoxazin-4-yl][2-methyl-5-[3-(1-methylethyl)-1H-1,2,4-triazol-1-yl]phenyl]methanone]	70	80	60	80	20	60	30	70	100	60	100	20	90	pest or weed control at 500 g/ha (blackgrass [1]; [14]): 90%; Corn plant response rating (crop injury, 0 = no effect, 100 = complete kill) at 500 g/ha (corn; [14]): 80%; plant injury at 500 g/ha (wheat [4]; [14]): 80%; plant injury at 500 g/ha (soybean; [14]): 100%; pest or weed control at 500 g/ha (ragweed [5]; [14]): 90%; pest or weed control at 500 g/ha (kochia [6]; [14]): 100%; pest or weed control at 125 g/ha (blackgrass [7]; [10]): 90%; pest or weed control at 500 g/ha (blackgrass [7]; Postemergence, 0 to 100 scale, read-out: Plant response rating, Blackgrass): 90%; pest or weed control at 125 g/ha (goosegrass; [11]): 20%; pest or weed control at 125 g/ha (kochia [8]; [12]): 90%; pest or weed control at 125 g/ha (foxtail, giant; [13]): 80%
